Measurements taken from US20230000896A1, “ALDH3A2 INHIBITION AND FERROPTOSIS INDUCTION FOR CANCER THERAPY” (President and Fellows of Harvard College, priority 2019, published 2023).
Residues, ends and D or L forms follow the SMILES beside them. *: point of attachment. Cbz = O=C(OCc1ccccc1)*; CH2F = FC*

Columns and labels:
[1] = tested on: leukemic stem and progenitor cells (LSPCs); test: lipid peroxidation by flow cytometry in Aldh3a2-control and mutant LSPCs; type: cell-based, mouse; conditions: FIG. 5D
Description: (§1) Aldehyde dehydrogenases metabolize aldehydes to mitigate oxidative stress and prevent lipid peroxidation in the cell. […] Next, oxidative damage in AML cells lacking Aldh3a2 was examined. […] To further assess deficits in detoxification capacity, the effects of 4-hydroxynonenal (4-HNE) was studied next, a commonly investigated fatty aldehyde and a byproduct of arachidonic acid catabolism, on cellular ROS, lipid peroxidation and proliferation in Aldh3a2-deficient leukemia stem and progenitor cells. […] Lastly, normal granulocyte monocyte precursors (N-GMPs) were investigated. […] Spleens from Aldh3a2-Ctrl and Aldh3a2-mut mice were utilized to obtain single cell suspensions and were incubated with C11 Bodipy lipid peroxidation sensor (ThermoFisher Cat #C10445) or CellRox reagent (ThermoFisher Cat #C10491) for 30 minutes at […]. Cells were stained with biotinylated antibodies against lineage markers, SA-Pacific Orange conjugate (ThermoFisher) and APC Rat Anti-Mouse CD117 (BD Biosciences) and read on the LSRII flow cytometer. Lipid peroxidation and cellular ROS was assessed in Lineage-, c-Kit^+ and Lineage^−, c-Kit^hi populations. RSL3 (at 5 uM), 4-HNE (5 uM) and ZVAD (at 10 uM) was added to Lin-Kit- or Lin-Kit+ leukemic cells in RPMI containing 10 ng/ul of murine IL3, IL6 and SCF. […] Number of cells were measured by Celltiter GloR 2.0 assay at days 0, 1 and 3. […]

[2] = tested on: leukemic stem and progenitor cells (LSPCs); test: growth kinetics of Aldh3a2-control and mutant LSPCs treated with 4HNE; type: cell-based, mouse; conditions: 4-HNE 5 uM, FIG. 5E
Description: Aldehyde dehydrogenases metabolize aldehydes to mitigate oxidative stress and prevent lipid peroxidation in the cell. […] Next, oxidative damage in AML cells lacking Aldh3a2 was examined. […] To further assess deficits in detoxification capacity, the effects of 4-hydroxynonenal (4-HNE) was studied next, a commonly investigated fatty aldehyde and a byproduct of arachidonic acid catabolism, on cellular ROS, lipid peroxidation and proliferation in Aldh3a2-deficient leukemia stem and progenitor cells. […] Lastly, normal granulocyte monocyte precursors (N-GMPs) were investigated. […] RSL3 (at 5 uM), 4-HNE (5 uM) and ZVAD (at 10 uM) was added to Lin-Kit- or Lin-Kit+ leukemic cells in RPMI containing 10 ng/ul of murine IL3, IL6 and SCF. Ferrostatin (10 uM) was added to bulk leukemic cells in RPMI containing 10 ng/ul of murine IL3, TPO and FLT3L. Number of cells were measured by Celltiter GloR 2.0 assay at days 0, 1 and 3. 10 mM of NAC was added to RPMI with 10 percent FBS and 1 percent P/S for relevant rescue experiments. Drugs were purchased from Sigma.

[3] = tested on: leukemic stem and progenitor cells (LSPCs); test: cellular ROS by flow cytometry in Aldh3a2-control and mutant LSPCs; type: cell-based, mouse; conditions: FIG. 5C
Description: as §1

[4] = tested on: Aldh3a2-control and mutant LSPCs; test: frequency of live Aldh3a2-control and mutant LSPCs after drug treatment; type: cell-based, mouse; conditions: three days
Description: The specific mechanism for the reduced number of leukemic cells upon Aldh3a2 deletion was next investigated.
Lipid peroxidation has been linked to the induction of ferroptosis, a non-apoptotic, iron-dependent form of cell death. An increase in lysophospholipids, especially those lacking PUFA tails as was observed (FIG. 13E), is a hallmark of ferroptosis. In addition, the ability to rescue cell death by providing exogenous MUFAs, as was found (FIG. 12H), is another feature of ferroptotic cell death. To further confirm these findings cells were treated with ferrostatin, an inhibitor of iron-dependent oxidative damage.
To further assess the relationship to ferroptosis, a key enzyme protecting cells from ferroptotic cell death, glutathione peroxidase 4 (Gpx4) was genetically and pharmacologically targeted. […] Recent findings have shown that activation of MUFAs by Acs13 can also promote resistance to ferroptosis. Acs13 expression was not different between Aldh3a2 control and mutant leukemic cells (FIG. 13F).
(§2) RSL3 (at 5 uM), 4-HNE (5 uM) and ZVAD (at 10 uM) was added to Lin-Kit- or Lin-Kit+ leukemic cells in RPMI containing 10 ng/ul of murine IL3, IL6 and SCF. Ferrostatin (10 uM) was added to bulk leukemic cells in RPMI containing 10 ng/ul of murine IL3, TPO and FLT3L. Number of cells were measured by Celltiter GloR 2.0 assay at days 0, 1 and 3. 10 mM of NAC was added to RPMI with 10 percent FBS and 1 percent P/S for relevant rescue experiments. Drugs were purchased from Sigma.

THP-1 cells = test: growth kinetics of ALDH3A2-depleted THP-1 cells treated with NAC; type: cell-based, human; conditions: 10 mM NAC, FIG. 12D
Procedure: In cells cultured in [1,2-^13C2]glucose, the oxPPP generates singly ^13C labeled (M1) intermediates, glycolysis generates doubly 13C labeled (M2) intermediates, and the M1/M2 ratio reflects the oxPPP flux relative to glycolysis (FIG. 12E). […] Cells lacking ALDH3A2 thus fail to increase antioxidant defense mechanisms to mitigate the increased oxidative stress and prevent lipid peroxidation.
as §2

[5] = tested on: Aldh3a2-control and mutant leukemic cells; test: fatty acid rescue experiments (viability by flow cytometry); type: cell-based, mouse; conditions: FIG. 12H
Procedure: By detoxifying fatty aldehydes, Aldh3a2 generates fatty acids that can be used for biosynthetic purposes (FIG. 12A). […] To further investigate the consequences of this depletion of 18-carbon fatty acids in Aldh3a2 knockout cells lipidomics analysis was performed on leukemic cells derived from conditional knockout mice (FIGS. 13A-13E). Several, but not all, phospholipid species containing 18-carbon fatty acid tails were decreased in mutant cells across lipid classes, including phosphatidylcholines, phosphatidylethanolamines, cardiolipins and phosphatidic acids (FIGS. 13A-13D).
Cell viability was analyzed using Annexin V-APC (BioLegend) and 7-AAD (ThermoFisher Scientific) with Annexin V^−7-AAD^− cells considered as viable cells. Analysis was performed on A BD LSR II flow cytometer.
Bulk GFP+ cells sorted from wildtype or mutant mice were plated in a 24 well plate at 50,000 cells per well. Oleic acid (Sigma), complexed to fatty acid-free bovine serum albumin, was added at concentrations of 62.5, 125 or 250 μM. Ethanol/albumin was used as control. 72 hours later cell viability was analyzed by flow cytometry.

L-GMPs = test: methylcellulose assay of shRNA-infected L-GMPs; type: cell-based, mouse; conditions: compared to control shRNA, FIG. 2C
Procedure: (§3) However, its functional role in normal and malignant hematopoiesis is unclear. […] Aldh3a2 knockdown in L-GMPs decreased the number of cells in a methylcellulose assay (FIG. 2C and FIG. 9A) that quantifies growth on a per cell basis.
(§4) Ten thousand N-GMPs or L-GMPs infected with lentiviruses expressing relevant shRNAs were added to 3 cc of methylcellulose (StemCell Technologies) plated per well of a 6 well plate. Number of cells were counted on day 7.

Aldh3a2 = test: Q-PCR validation of Aldh3a2 knockdown in L-GMPs; type: cell-based, mouse; conditions: FIG. 2B
Procedure: as §3
RNA was extracted from cells using the RNeasy Micro Kit (Qiagen) and RT-PCR was performed using the SuperScript™ IV One-Step RT-PCR System according to the manufacturer's instructions. Taqman probes were used to perform Q-PCR for murine and human Aldh3a2.

N-GMPs = test: methylcellulose assay of shRNA-infected N-GMPs; type: cell-based, mouse; conditions: compared to control shRNA, FIG. 3A
Description: Then a constitutive knockout mouse model (KO) was utilized where Aldh3a2 enzyme activity was decreased to less than 50 percent of wild-type (WT) control mice (FIG. 3B). (This model consists of a deletion of exon 4 of the Aldh3a2 gene which completely destroys Aldh3a2 enzyme activity but assays of cell homogenates measure total fatty aldehyde oxidizing activity including aldehyde dehydrogenases other than Aldh3a2).
as §4

[6] = tested on: MLL-AF9 leukemia (L-GMPs); test: survival of sublethally irradiated C57BL/6J mice transplanted with shRNA-expressing L-GMPs; type: in vivo, mouse; conditions: ten thousand L-GMPs transplanted, vs control shRNA, FIG. 2D
Description: To evaluate Aldh3a2 knockdown in vivo, ten thousand L-GMPs expressing Aldh3a2-sh-1, Aldh3a2-sh-2 or control shRNA were transplanted into sublethally irradiated C57BL/6J recipient mice and followed over time.

## CCCCCC(O)/C=C/C=O (stereo not shown) [4-HNE, 4-hydroxynonenal]
[1]; 4-HNE exposure
  lipid peroxidation: increased levels of lipid peroxidation in mutant but not in control cells
[2]
  sensitivity to 4HNE, mutant versus control: significantly greater in mutant than in control cells
[2]; control and mutant cells
  cell growth: reduced cell growth
[3]; 4-HNE exposure for 24 hours
  cellular ROS: increased cellular ROS in mutant but not control cells

## CCOC(=O)c1ccc(NC2CCCCC2)c(N)c1 [Ferrostatin]
[4]; Ferrostatin 10 uM, FIG. 6H and 14B
  cell death in Aldh3a2 mutant leukemia cells: completely prevented the cell death

## CC(=O)N[C@@H](CS)C(=O)O [NAC, N-Acetyl-L-Cysteine]
THP-1 cells
  rescue of ALDH3A2 depleted THP-1 cells: partial rescue in the population of cells with moderate (sh-A) but not severe (sh-B) ALDH3A2 depletion

## COC(=O)c1ccc([C@@H]2c3[nH]c4ccccc4c3C[C@@H](C(=O)OC)N2C(=O)CCl)cc1 [RSL3]
[4]; RSL3 5 uM, FIG. 6I and 14C
  sensitivity of Aldh3a2 deficient Lin-cKit+ AML cells: increased sensitivity

## CC(NC(=O)C(NC(=O)OCc1ccccc1)C(C)C)C(=O)NC(CC(=O)O)C(=O)CF (stereo not drawn) [Z-VAD] (Cbz-Val-Ala-Asp-CH2F; configuration not given here)
[4]; ZVAD 10 uM, Lin- cKit+ cells, FIG. 6F
  rescue of cell death in Aldh3a2 deficient cells: did not rescue the cell death

## CCCCCCCC/C=C\CCCCCCCC(=O)O [oleic acid]
[5]; exogenous oleic acid (18:1), conditional mutant mice
  rescue of the effects of Aldh3a2 depletion: rescued the effects of Aldh3a2 depletion
[5]; three days culture, 62.5, 125 or 250 μM tested
  concentration of maximum rescue of cells from death: 125 µM

## Aldh3a2-sh-1: shRNA against mouse Aldh3a2, GCAGGAAATGCTGTGATTATA (SEQ ID NO: 1)
L-GMPs
  number of L-GMPs in methylcellulose: significantly decreases the number of L-GMPs in methylcellulose
Aldh3a2
  Aldh3a2 expression in L-GMPs: decreased Aldh3a2 expression in L-GMPs
N-GMPs
  number of N-GMPs in methylcellulose: no difference in the number of N-GMPs
[6]
  survival of recipient mice: survive significantly longer than control animals

## Aldh3a2-sh-2: shRNA against mouse Aldh3a2, CCTCTGGCTCTTTATGTATTT (SEQ ID NO: 2)
L-GMPs
  number of L-GMPs in methylcellulose: significantly decreases the number of L-GMPs in methylcellulose
Aldh3a2
  Aldh3a2 expression in L-GMPs: decreased Aldh3a2 expression in L-GMPs
[6]
  survival of recipient mice: survive significantly longer than control animals

## Vitamin E
[1]; 4HNE plus vitamin E treatment
  lipid peroxidation: significantly decreased lipid peroxidation in both populations
[3]; 4HNE plus vitamin E treatment
  total ROS: decreased total ROS in control cells but was unable to do so in mutant cells
